Data: ChEMBL document CHEMBL1201862, “PubChem BioAssay data set” (2004)
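These data come from cells grown in 96-well plates and exposed to compound for 48 hours at five concentrations. At the GI50, growth is halved.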 Activity calls are given as the source filed them. Cut-off read from the data, not from the text of the source: active = GI50 up to about 1.1 µM and inactive = higher.

What was measured:
Test in all cases: NCI-60 cell line screen, 48 h
[1] = test system: SF-539
[2] = test system: NCI-H522
[3] = test system: BT-549
[4] = test system: TK-10
[5] = test system: KM12
[6] = test system: DU-145
[7] = test system: MOLT-4
[8] = test system: UO-31
[9] = test system: Malme-3M
[10] = test system: SR
[11] = test system: SK-MEL-2
[12] = test system: SN12C
[13] = test system: MDA-MB-231
[14] = test system: SF-295
[15] = test system: RPMI-8226
[16] = test system: EKVX
[17] = test system: K562
[18] = test system: HOP-62
[19] = test system: RXF 393
[20] = test system: MCF7
[21] = test system: SNB-19
[22] = test system: T47D
[23] = test system: OVCAR-3
[24] = test system: UACC-257
[25] = test system: HCT-116
[26] = test system: HCT-15
[27] = test system: OVCAR-4
[28] = test system: UACC-62
[29] = test system: A498
[30] = test system: PC-3
[31] = test system: CAKI-1
[32] = test system: NCI/ADR-RES
[33] = test system: HT-29
[34] = test system: HOP-92
[35] = test system: CCRF-CEM
[36] = test system: OVCAR-5
[37] = test system: IGROV-1
[38] = test system: LOX IMVI
[39] = test system: SK-MEL-5
[40] = test system: MDA-N
[41] = test system: NCI-H23
[42] = test system: A549
[43] = test system: COLO 205
[44] = test system: HL-60
[45] = test system: SW-620
[46] = test system: OVCAR-8
[47] = test system: NCI-H460
[48] = test system: SK-MEL-28
[49] = test system: NCI-H226
[50] = test system: HCC 2998
[51] = test system: 786-0
[52] = test system: M14
[53] = test system: SNB-75
[54] = test system: MDA-MB-435
[55] = test system: U-251
[56] = test system: SK-OV-3
[57] = test system: Hs-578T
[58] = test system: ACHN
[59] = test system: SF-268

## COc1ccc([C@]23CCC4(OCC(C)(C)CO4)[C@H]4CON(O[C@H](O[C@@H]5CCCCC5C(C)(C)c5ccccc5)C2)[C@@H]43)cc1OC (stereo partly drawn)
[1]
  GI50: 5.81 µM (inactive)
[2]
  GI50: 27 µM (inactive)
[3]
  GI50: 69 µM (inactive)
[4]
  GI50: 78.5 µM (inactive)
[5]
  GI50: 29.6 µM (inactive)
[6]
  GI50: 59.3 µM (inactive)
[7]
  GI50: 17.7 µM (inactive)
[8]
  GI50: 35.8 µM (inactive)
[9]
  GI50: 56.6 µM (inactive)
[10]
  GI50: 20 µM (inactive)
[11]
  GI50: 47.1 µM (inactive)
[12]
  GI50: 61.1 µM (inactive)
[13]
  GI50: 81.7 µM (inactive)
[14]
  GI50: 39 µM (inactive)
[15]
  GI50: 26.9 µM (inactive)
[16]
  GI50: 34 µM (inactive)
[17]
  GI50: 21.5 µM (inactive)
[18]
  GI50: 97.3 µM (inactive)
[19]
  GI50: 25.4 µM (inactive)
[20]
  GI50: 30.1 µM (inactive)
[21]
  GI50: 61.7 µM (inactive)
[22]
  GI50: 20.2 µM (inactive)
[23]
  GI50: 34 µM (inactive)
[24]
  GI50: 36.6 µM (inactive)
[25]
  GI50: 33.3 µM (inactive)
[26]
  GI50: 37.8 µM
[27]
  GI50: 26.1 µM (inactive)
[28]
  GI50: 30.4 µM (inactive)
[29]
  GI50: 48.1 µM (inactive)
[30]
  GI50: 39.6 µM (inactive)
[31]
  GI50: 13.6 µM (inactive)
[32]
  GI50: 31 µM (inactive)
[33]
  GI50: 44 µM (inactive)
[34]
  GI50: 25.8 µM (inactive)
[35]
  GI50: 29.5 µM (inactive)
[36]
  GI50: 89.1 µM (inactive)
[37]
  GI50: 32.7 µM (inactive)
[38]
  GI50: 57.5 µM (inactive)
[39]
  GI50: 22.2 µM (inactive)
[40]
  GI50: 28.8 µM (inactive)
[41]
  GI50: 47.6 µM (inactive)
[42]
  GI50: 42.3 µM (inactive)
[43]
  GI50: 34.7 µM (inactive)
[44]
  GI50: 20.6 µM (inactive)
[45]
  GI50: 36.4 µM (inactive)
[46]
  GI50: 60 µM (inactive)
[47]
  GI50: 79.4 µM (inactive)
[48]
  GI50: 42.6 µM (inactive)
[49]
  GI50: 58.6 µM (inactive)
[50]
  GI50: > 100 µM (inactive)
[51]
  GI50: 50.5 µM (inactive)
[52]
  GI50: 35.6 µM (inactive)
[53]
  GI50: 41.5 µM (inactive)
[54]
  GI50: 25.9 µM (inactive)
[55]
  GI50: 64 µM (inactive)
[56]
  GI50: 78.3 µM (inactive)

## O=C1C=CC(=C(c2ccccc2)c2ccc(O)cc2)C=C1
[1]
  GI50: 13.2 µM (inactive)
[2]
  GI50: 13.7 µM (inactive)
[3]
  GI50: 6.03 µM (inactive)
[4]
  GI50: 19.2 µM (inactive)
[5]
  GI50: 19.4 µM (inactive)
[6]
  GI50: 17.4 µM (inactive)
[7]
  GI50: 3.33 µM (inactive)
[8]
  GI50: 14.8 µM (inactive)
[9]
  GI50: 13.6 µM (inactive)
[10]
  GI50: 7.45 µM (inactive)
[11]
  GI50: 15.8 µM (inactive)
[12]
  GI50: 13.6 µM (inactive)
[13]
  GI50: 15.2 µM (inactive)
[14]
  GI50: 19.4 µM (inactive)
[15]
  GI50: 9.12 µM (inactive)
[16]
  GI50: 13.7 µM (inactive)
[17]
  GI50: 15.1 µM (inactive)
[57]
  GI50: 16.7 µM (inactive)
[18]
  GI50: 21.9 µM (inactive)
[19]
  GI50: 14.2 µM (inactive)
[20]
  GI50: 13.4 µM (inactive)
[21]
  GI50: 13.8 µM (inactive)
[23]
  GI50: 16.2 µM (inactive)
[24]
  GI50: 16.9 µM (inactive)
[25]
  GI50: 50.5 µM (inactive)
[26]
  GI50: 14.2 µM
[58]
  GI50: 19.4 µM (inactive)
[27]
  GI50: 14.3 µM (inactive)
[28]
  GI50: 14.1 µM (inactive)
[30]
  GI50: 22.1 µM (inactive)
[31]
  GI50: 17.3 µM (inactive)
[32]
  GI50: 32.7 µM (inactive)
[33]
  GI50: 20.7 µM (inactive)
[34]
  GI50: 18 µM (inactive)
[35]
  GI50: 1.16 µM (inactive)
[36]
  GI50: 20.3 µM (inactive)
[37]
  GI50: 8.41 µM (inactive)
[38]
  GI50: 4.51 µM (inactive)
[39]
  GI50: 11.5 µM (inactive)
[41]
  GI50: 18.7 µM (inactive)
[42]
  GI50: 17.4 µM (inactive)
[43]
  GI50: 14.9 µM (inactive)
[44]
  GI50: 8.15 µM (inactive)
[45]
  GI50: 18.1 µM (inactive)
[46]
  GI50: 16.9 µM (inactive)
[59]
  GI50: 20 µM (inactive)
[47]
  GI50: 17.3 µM (inactive)
[48]
  GI50: 16.1 µM (inactive)
[49]
  GI50: 19.5 µM (inactive)
[50]
  GI50: 31.1 µM (inactive)
[51]
  GI50: 18.7 µM (inactive)
[52]
  GI50: 24.2 µM (inactive)
[53]
  GI50: 16.9 µM (inactive)
[54]
  GI50: 15.7 µM (inactive)
[55]
  GI50: 12.4 µM (inactive)

## COc1ccc(NC(C)=O)cc1N1C(=O)/C(=C\c2cccc(Oc3ccccc3)c2)S(=O)(=O)C1c1ccccc1 (stereo not drawn)
[1]
  GI50: 20.7 µM (inactive)
[2]
  GI50: 41.1 µM (inactive)
[3]
  GI50: 53.3 µM (inactive)
[4]
  GI50: > 100 µM (inactive)
[5]
  GI50: 59.2 µM (inactive)
[6]
  GI50: 39 µM (inactive)
[7]
  GI50: 16.9 µM (inactive)
[8]
  GI50: 18.9 µM (inactive)
[9]
  GI50: 70.1 µM (inactive)
[10]
  GI50: 4.21 µM (inactive)
[11]
  GI50: 69.5 µM (inactive)
[12]
  GI50: 24.2 µM (inactive)
[13]
  GI50: 49 µM (inactive)
[14]
  GI50: 53.1 µM (inactive)
[15]
  GI50: 22.3 µM (inactive)
[16]
  GI50: 41.6 µM (inactive)
[17]
  GI50: 22.8 µM (inactive)
[18]
  GI50: 71.6 µM (inactive)
[19]
  GI50: 54.8 µM (inactive)
[20]
  GI50: 25.9 µM (inactive)
[21]
  GI50: 46.1 µM (inactive)
[22]
  GI50: 18.5 µM (inactive)
[23]
  GI50: 28.5 µM (inactive)
[24]
  GI50: 49.3 µM (inactive)
[25]
  GI50: 17.4 µM (inactive)
[26]
  GI50: 39 µM
[58]
  GI50: 39.4 µM (inactive)
[27]
  GI50: 16.1 µM (inactive)
[28]
  GI50: 58.7 µM (inactive)
[29]
  GI50: > 100 µM (inactive)
[30]
  GI50: 36.6 µM (inactive)
[31]
  GI50: 16.6 µM (inactive)
[32]
  GI50: 27.9 µM (inactive)
[33]
  GI50: 18.7 µM (inactive)
[34]
  GI50: 25 µM (inactive)
[35]
  GI50: 16.1 µM (inactive)
[36]
  GI50: > 100 µM (inactive)
[37]
  GI50: 34.5 µM (inactive)
[38]
  GI50: 26.9 µM (inactive)
[39]
  GI50: 35.3 µM (inactive)
[40]
  GI50: 21 µM (inactive)
[41]
  GI50: 60.3 µM (inactive)
[42]
  GI50: 62.8 µM (inactive)
[43]
  GI50: 58.2 µM (inactive)
[44]
  GI50: 20.4 µM (inactive)
[45]
  GI50: 28.4 µM (inactive)
[46]
  GI50: 35.1 µM (inactive)
[47]
  GI50: 74.1 µM (inactive)
[48]
  GI50: 43.1 µM (inactive)
[49]
  GI50: > 100 µM (inactive)
[50]
  GI50: > 100 µM (inactive)
[51]
  GI50: 32.2 µM (inactive)
[52]
  GI50: 30.1 µM (inactive)
[53]
  GI50: 19 µM (inactive)
[54]
  GI50: 33.8 µM (inactive)
[55]
  GI50: 32.7 µM (inactive)
[56]
  GI50: > 100 µM (inactive)
